Experimental data taken from patent publication US10766869B2, “Triazoles for the treatment of demyelinating dieases” (Vertex Pharmaceuticals Incorporated, priority 2015, dated 2020).
Like-named read-outs stand apart in the source and are kept apart here.

What was measured:
[1] = system: C57BL/6 mice demyelinated with cuprizone; assay: In vivo mouse cuprizone assay (new myelin, MBP positive / MOG negative area); conditions: for effect measured as new myelin generated in response to compound treatment compared to control with no added compound: Regimen A (QD or BID for 14 days via oral gavage), various doses; for effect (new myelin generated compared to control): Regimen A, oral gavage
Description: Assays for Detecting and Measuring Remyelination Properties of Compounds In Vivo Mouse Cuprizone Assay:
Cuprizone Feeding Protocol:
2 month old female C57BL/6 mice (Stock Number: 000664) were purchased from Jackson Labs and fed for 4-10 months with a 0.2% cuprizone chow (provided by Research Diets, Product # D10020701R, Description AIN-76A Rodent Diet with 0.2% cuprizone) using cuprizone purchased from Sigma (Cat #14690-100G). Chow was provided ad libitum, and refreshed every 4 days to ensure stability of the cuprizone. Mice were maintained on this diet for 4-10 months before initiation of the experiments.
1) 24 hours prior to the start of dosing, 6 to 10 mice were switched from cuprizone chow to normal chow (Picolab rodent diet 20 EXT IRR 5053, irradiated) without added cuprizone. These mice were maintained on normal chow throughout the course of dosing.
2) 6 to 10 mice per group were randomized into new cages such that mice that were housed in one cage during the cuprizone diet were not housed together in one dose group during the study.
3) Mice were dosed with compound in one of two regimens: Regimen A: mice were dosed QD or BID for 14 days via oral gavage. Regimen B: mice were dosed QD or BID for 14 days via IP injection. However, other dosing schedules and/or routes of administration may also be used.
4) On the last day of dosing, dried blood spots were collected at multiple time points following the last dose. Often this was 30 minutes, 2, 6 and 24 hours following the final dose on day 14 via the tail vein.
Perfusion and Sectioning:
1) The day after the last day of dosing, mice were transcardially perfused with 12 ml of PBS (Sigma, P4417) followed by 20 ml of 3.2% paraformaldehyde in PBS (Electron Microscopy Sciences #15714-S). The brains were removed via standard dissection techniques and each was postfixed in 3.2% paraformaldehyde (20 ml) for 24-48 hours at room temperature in sealed scintillation vials.
2) Serial 50 micron sections were collected through the anterior posterior extent of the brain, from just behind the olfactory bulb, through visual cortex using a vibrating microtome, the V-STAR (described in International Publication No. WO 2013/012799 and U.S. Pat. No. 8,967,024 both of which are incorporated herein by reference in their entirety). Sections were collected in phosphate buffered saline (PBS). Vibratome speed was set to 1.1 mm/s and amplitude was set to 0.8 mm.
3) A series of every 24th section was removed for staining yielding 5 sections per brain.
1) Tissue sections were stained using an automated system for processing blots (hereinafter the “blotinator”) (described in WO2011/087646 and U.S. Pat. Nos. 8,337,754 and 8,679,406 each of which is incorporated herein by reference in its entirety). Brain sections were placed in the blotinator plate and bathed in PBS. The blotinator applied primary antibodies (MOG and MBP together) and Hoechst nuclear stain for 12 hours at room temperature with constant shaking.
The following stains were diluted in blocking buffer (described below):
Hoechst nuclear stain (0.5 mg/ml)(bisBenzimide H 33342 trihydrochloride Sigma #33342).
Myelin basic Protein (MBP) antibody (Abcam Cat # ab7349) was diluted at a 1:750 ratio in blocking buffer).
Myelin Oligodendrocyte Glycoprotein (MOG) (R&D systems Cat # AF2439) was diluted at a 1:250 ratio in blocking buffer.
Antibodies were diluted in blocking buffer, which consisted of 0.3% Triton X-100 (Sigma Cat #234729), 0.02% Sodium Azide (Sigma Cat # S2002) and 8% fetal bovine serum in PBS (Sigma Cat # F2442).
2) The blotinator washed the samples 4 times for 5 minutes each with a wash buffer (0.2% Triton X-100 in PBS).
3) The blotinator applied secondary antibodies diluted in blocking buffer and incubated them for 2 hours with constant shaking.
Alexa 488 donkey anti-rat secondary (Life technologies Cat # A-21208) was diluted at 1:1000 in blocking buffer. […]

[2] = system: primary rat mixed cortical cells; assay: In vitro myelination assay (MBP positive myelin strands, fold myelin pixels above background); type: cell-based; conditions: Rattus norvegicus, relative to baseline of no added compound; for fold induction at 1 µM: 1.0 μM compound; for fold induction at 10 µM: 10.0 μM compound
Outline: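 Myelination read as total MBP-immunopositive strand pixels per well, imaged at 10× after fixation on day 14 and expressed relative to untreated wells, at 1.0 and 10.0 μM. Cells: dissociated postnatal day 1 rat cortex, cultured two weeks with compound, re-dosed at days 6 and 10.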

[3] = read-out: Fold myelin pixels above background
[4] = read-out: Fold myelin pixels above background, 1.0 μM
[5] = read-out: Fold myelin pixels above background, 10.0 μM

| Compound | effect measured as new myelin generated in response to compound treatment compared to control with no added compound [1] | effect (new myelin generated compared to control) ([1]; 8 mpk) | effect (new myelin generated compared to control) ([1]; 10 mpk) | effect (new myelin generated compared to control) ([1]; 20 mpk) | fold induction at 1 µM [2, 3] | fold induction at 10 µM [2, 3] | effect (new myelin generated compared to control) ([1]; 30 mpk) | effect (new myelin generated compared to control) ([1]; 50 mpk) | effect (new myelin generated compared to control) ([1]; 100 mpk) | fold induction at 1 µM [2, 4] | fold induction at 10 µM [2, 5] | effect (new myelin generated compared to control) ([1]; 60 mpk) |
| --- | --- | --- | --- | --- | --- | --- | --- | --- | --- | --- | --- | --- |
| Cc1cc(Nc2ncn(-c3cc(F)cc(F)c3)n2)c(F)c(N2CCN(C3COC3)CC2)c1 [Compound 691, 1-(3,5-Difluorophenyl)-N-(2-fluoro-5-methyl-3-(4-(oxetan-3-yl)piperazin-1-yl)phenyl)-1H-1,2,4-triazol-3-amine] | positive effect | positive effect | positive effect | positive effect | 10 to 100 | 10 to 100 | – | – | – | – | – | – |
| CCc1cc(Nc2ncn(-c3cnccn3)n2)cc(N2CCN(C3COC3)CC2)c1 [Compound 48, N-[3-ethyl-5-[4-(oxetan-3-yl)piperazin-1-yl]phenyl]-1-pyrazin-2-yl-1,2,4-triazol-3-amine] | positive effect | – | – | – | – | – | positive effect | positive effect | positive effect | 100 to 1000 | 100 to 1000 | – |
| Cc1cc(Nc2ncn(-c3cnccn3)n2)cc(N2CCN(C3COC3)CC2)c1 [Compound 195, N-[3-methyl-5-[4-(oxetan-3-yl)piperazin-1-yl]phenyl]-1-pyrazin-2-yl-1,2,4-triazol-3-amine] | positive effect | – | – | – | – | – | – | – | positive effect | 100 to 1000 | 100 to 1000 | positive effect |
